In paper PMC9127571 (eBioMedicine, 2022):
Converted amounts (≈) assume the structure as drawn. “Also recorded” adds a separate entry of the source.

How the values were obtained:
[1] = Phase 1a plasma pharmacokinetics of SJ733 and metabolite SJ506; assay type: in vivo, human
[2] = Phase 1a safety and tolerability: adverse events, ECG, laboratory tests; assay type: in vivo, human
[3] = Beagle dog oral toxicology, safety pharmacology and toxicokinetics; assay type: in vivo; details: high doses
P. falciparum = details: cited from earlier work
[4] = Cobicistat plasma pharmacokinetics; assay type: in vivo, human; details: 150 mg, all individuals
[5] = MAD and cobicistat-boosted SAD cohorts

| Structure (SMILES) | individuals with time above MIC >96 h ([1]; 300 mg daily for 3 days) [%] | individuals with time above MIC >96 h ([1]; 600 mg daily for 3 days) [%] | decrease in median post-hoc apparent clearance ([1]; SAD cohorts without vs with cobicistat) [%] | AUC(0-inf) ([1]; human, plasma, oral) [µg·h/mL] | Cmax ([1]; human, plasma, oral, maximal Cmax, unboosted SAD and MAD cohorts) [ng/mL] | relatedness of all AEs to SJ733 or cobicistat [2, 5] | serious adverse events [2, 5] | post-dose QTc above 500 ms ([2]; human, in vivo, oral) | baseline versus post-dose QTc interval change above 60 ms ([2]; instance: Day 3, 1·5 h post 300 mg, unboosted) | methemoglobinemia [3] | estimated minimum inhibitory concentration (MIC) (P. falciparum) [µg/mL] | minimum inhibitory concentration (MIC) (P. falciparum) [µg/mL] | time by which levels were below LLOQ (10 ng/mL) [4] [h] |
| --- | --- | --- | --- | --- | --- | --- | --- | --- | --- | --- | --- | --- | --- |
| N#Cc1cc(NC(=O)[C@H]2c3ccccc3C(=O)N(CC(F)(F)F)[C@@H]2c2cccnc2)ccc1F [SJ733] | 0 | 50 | 72 | 104 | 2180 | unlikely related or unrelated | no serious adverse events; also recorded: no serious AEs | no post-dose QTc interval change above 500 ms | one instance | Dose-dependent, reversible methemoglobinemia | 0.15 | 0.15 (≈ 0.32 µM) |  |
| CC(C)c1nc(CN(C)C(=O)N[C@@H](CCN2CCOCC2)C(=O)N[C@H](CC[C@H](Cc2ccccc2)NC(=O)OCc2cncs2)Cc2ccccc2)cs1 [cobicistat] |  |  |  |  |  |  |  |  |  |  |  |  | ≤ 48 |
